Structures can show the parent of a compound that is named as a salt. Where two headings read alike, the source gives them in different places. One block for each compound: values may come before it. Peptide text beside a SMILES is read from it.
Tests used:
rabbit PepT1 [1] = target: T1, rabbit PepT1 (Oryctolagus cuniculus, UniProt P36836); assay: Inhibition of radiolabelled D-Phe-L-Gln uptake in Xenopus laevis oocytes expressing rabbit PepT1 (binding affinity); conditions: oocytes expressing rabbit PepT1, pH 5.5 assay buffer
T1 construct: expressed in transfected cells; host or cells: Xenopus laevis oocytes
T1 sequence (P36836 1-707): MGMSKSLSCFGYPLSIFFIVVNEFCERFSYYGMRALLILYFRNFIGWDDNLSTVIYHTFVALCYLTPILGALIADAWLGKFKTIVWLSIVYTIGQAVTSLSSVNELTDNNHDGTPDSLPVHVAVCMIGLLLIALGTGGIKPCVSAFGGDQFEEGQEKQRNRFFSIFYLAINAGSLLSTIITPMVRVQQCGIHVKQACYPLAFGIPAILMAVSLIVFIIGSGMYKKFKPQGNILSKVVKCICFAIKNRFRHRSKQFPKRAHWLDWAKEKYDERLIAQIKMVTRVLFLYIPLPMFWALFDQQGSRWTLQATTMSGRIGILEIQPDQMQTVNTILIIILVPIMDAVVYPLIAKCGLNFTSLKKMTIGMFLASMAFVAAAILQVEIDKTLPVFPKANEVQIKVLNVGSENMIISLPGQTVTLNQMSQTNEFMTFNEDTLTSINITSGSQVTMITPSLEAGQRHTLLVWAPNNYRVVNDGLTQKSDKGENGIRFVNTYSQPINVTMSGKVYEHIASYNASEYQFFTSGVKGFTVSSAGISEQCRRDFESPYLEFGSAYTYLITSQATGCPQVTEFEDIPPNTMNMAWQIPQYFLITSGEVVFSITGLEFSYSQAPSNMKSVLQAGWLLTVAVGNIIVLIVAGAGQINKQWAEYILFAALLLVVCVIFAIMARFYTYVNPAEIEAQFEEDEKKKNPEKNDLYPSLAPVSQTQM
Method: (§1) The Ki, trans-stimulation efflux and Caco-2 assays were performed as described previously.

rabbit PepT1 [2] = target: T1, rabbit PepT1; assay: Trans-stimulation efflux of [3H]-D-Phe-L-Gln from rabbit PepT1 expressing oocytes; type: cell-based; conditions: 10 mM prodrug, [3H]-D-Phe-L-Gln efflux, compared to GlyGln
Method: Trans-stimulation assays were performed using radiolabelled [^3H]-D-Phe-L-Gln efflux from rabbit PepT1 expressing oocytes in the presence of 10 mM pro-drug. As controls, 10 mM Gly-L-Gln (a standard PepT1 substrate) or buffer lacking a substrate (negative control) were used.
as §1

[3] = rats; cited from earlier work
[4] = humans; cited from earlier work
[5] = Caco-2 monolayer apical to basolateral transport; type: in vitro ADME; conditions: human, 2 mM prodrug, mean ± RSD, read-out: Overall Papp
Method: Prodrugs that generated robust trans-stimulated efflux in oocytes were further in a Caco-2 monolayer assay to investigate further the extent and rate of trans-epithelial transport. […] Apical to basolateral transport of 2 mM pro-drug, applied to the apical side, was monitored by high performance liquid chromatography (HPLC) after 1 h. The presence or absence of excess Gly-Gln allowed us to determine both the overall and PepT1 specific permeability (Table 2). […] The PepT1 mediated Papp values are of similar magnitude to known PepT1 (pro)drug substrates.
as §1

[6] = pH 5.5
[7] = Stability in rat liver homogenate; type: in vitro ADME; conditions: 37 °C; for half-life at 0.5 mM: male, rat, rat liver homogenate, pH 7.5, 0.5 mM compound, read-out: Rat liver homgenate t1/2 (converted)
Method: Fresh rat liver homogenate was prepared by isolating liver from euthanized male rats, according to approved Home Office procedures. The liver was chopped with scissors and rinsed with medium (0.25 M sucrose, 25 mM KCl, 5 mM MgCl2 and 50 mM Tris/HCl, pH7.5) to remove trapped blood. The liver was then homogenized in fresh medium with a loose-fitting dounce-type homogenizer and kept on ice. Liver homogenate was incubated with either 0.5 mM compound 1 or 3, or L-Trp-L-Ala as a positive control, at 37 °C. 250 μl aliquots of the homogenate were taken at 0, 0.25, 0.5, 1, 2, 6 and 24 h. The samples were precipitated by addition an equal volume of 3% perchloric acid and centrifugation at 17000g for 5 min. The perchloric acid was neutralized with 250 μl of 1 M KOH, and the sample subjected to a freeze/thaw cycle to precipitate the KClO4 salt before again being centrifuged. The supernatant was then analyzed by HPLC as for the Caco-2 permeability studies, and the half-life of the compounds calculated according to the method of Vig et al..

rabbit PepT1 [8] = target: T1, rabbit PepT1; set-up: method as in PMID 19262922; conditions: 10 mM prodrug, [3H]-D-Phe-L-Gln efflux; previously reported data ref 16; cited from earlier work
[9] = Oral pharmacokinetics in male Sprague-Dawley rats; conditions: for Cmax / Tmax: rat plasma
Method: (§2) Animals were given free access to food and water throughout the study and maintained under a 12-h light/dark cycle with temperature and humidity controlled according to Home Office regulations.
(§3) Blood samples (230 μL) were taken from the carotid artery at the following time points and placed in heparinized tubes: predose, 0.25, 0.5, 1, 2, 4, 8 and 24 h post dose. After the final time point the animals were sacrificed by an overdose of anaesthetic.
(§4) Blood samples were centrifuged to obtain the plasma, which was transferred to a separate labelled container. Aliquots from the individual time points for the three animals were analyzed singly. 80 μL of plasma was diluted with 20 μL of 1:1 ACN:water, then 800 μL chilled ACN was added, samples briefly vortex mixed and the centrifuged at 13000 rpm for 5 min at 4 °C. 500 μL of the resultant supernatant was further diluted with 500 μL water.
(§5) 20 μL sample was analyzed by LC-MS/MS using a C18 5 μm Gemini UHPLC column running a gradient of 90% 0.04% acetic acid in water to 90% ACN over 3 min at a flow rate of 0.5 mL min^−1. MS data was acquired under multiple reaction monitoring conditions using a turbo spray ion source. The concentration in the plasma was determined by comparison to standard curves of the administered compound prepared in blank plasma matrices and treated in an identical manner to the samples.

in vivo = conditions: male, Sprague-Dawley, rat, po, 6 mg/kg
Method: as §2, §3, §4, §5

[10] = male, Sprague-Dawley, rat, in vivo, po, 6 mg/kg
Method: as §2, §3, §4, §5

Ki (rabbit PepT1 [1]): 440 ± 150 µM | Trans-stimulated efflux? (rabbit PepT1 [2]): No
Compound: CC(C)NC[C@@H](COc1ccc(CC(N)=O)cc1)OC(=O)C[C@H](NC(=S)[C@H](C)N)C(=O)O [Compound 8, (S)-4-((S)-3-(4-(2-amino-2-oxoethyl)phenoxy)-1-(isopropylamino)propan-2-yloxy)-2-((S)-2-aminopropanethioamido)-4-oxobutanoic acid]

Compound: CC(C)c1cccc(C(C)C)c1O [propofol]
Oral bioavailability [3]: no oral bioavailability | Oral bioavailability [4]: no oral bioavailability

Compound: C[C@H](N)C(=S)N[C@@H](COC(=O)CC1(CN)CCCCC1)C(=O)O [Compound 2, (S)-3-[2-(1-Aminomethyl-cyclohexyl)-acetoxy]-2-((S)-2-amino-thiopropionylamino)-propionic acid]
Ki (rabbit PepT1 [1]): 1010 ± 330 µM | Papp at 1 h, 2 mM [5]: 0.6 ± 0.1 ×10⁻⁶ cm/s | Trans-stimulated efflux? (rabbit PepT1 [2]): Yes

melting point: 118 to 121 °C
Compound: CC(C)NC[C@@H](COc1ccc(CC(N)=O)cc1)OC(=O)C[C@H](NC(=S)[C@H](C)N)C(=O)O (as salt: salt) [Compound 8, (S)-4-((S)-3-(4-(2-amino-2-oxoethyl)phenoxy)-1-(isopropylamino)propan-2-yloxy)-2-((S)-2-aminopropanethioamido)-4-oxobutanoic acid]

Ki (rabbit PepT1 [1]): 320 ± 80 µM | Papp at 1 h, 2 mM [5]: 3 ± 0.5 ×10⁻⁶ cm/s | Trans-stimulated efflux? (rabbit PepT1 [2]): No
Compound: C[C@H](NC(=O)[C@@H](N)Cc1ccccc1)C(N)=S [FSA, PheΨ[CS-NH]-Ala, reference compound]

Compound: C[C@H](N)C(=S)N[C@@H](COC(=O)C[C@@H](CN)c1ccc(Cl)cc1)C(=O)O (as salt: salt) (hydrate or solvate) [Compound 10, (S)-3-((R)-4-amino-3-(4-chlorophenyl)butanoyloxy)-2-((S)-2-aminopropanethioamido)propanoic acid]
melting point: 112 to 115 °C

Compound: (S)-2-((S)-2-Amino-thiopropionylamino)-succinic acid 4-(2-{2-[2-(2-acetoxy-benzoyloxy)-ethoxy]-ethoxy}-ethyl) ester [Compound 4]
Stability in assay buffer [6]: limited stability

Stability in assay buffer [6]: limited stability
Compound: (S)-2-((S)-2-Amino-thiopropionylamino)-succinic acid 4-[2-(2-amino-6-oxo-1,6-dihydro-purin-9-ylmethoxy)-ethyl] ester [Compound 5]

Compound: C[C@H](N)C(=S)N[C@@H](COC(=O)C[C@@H](CN)c1ccc(Cl)cc1)C(=O)O [Compound 10, (S)-3-((R)-4-amino-3-(4-chlorophenyl)butanoyloxy)-2-((S)-2-aminopropanethioamido)propanoic acid]
Ki (rabbit PepT1 [1]): 1870 ± 260 µM | Trans-stimulated efflux? (rabbit PepT1 [2]): No

half-life at 0.5 mM [7]: 0.15 h
Compound: C[C@H](NC(=O)[C@@H](N)Cc1c[nH]c2ccccc12)C(=O)O [L-Trp-L-Ala, reference compound] (H-Trp-Ala-OH)

melting point: 210 to 212 °C
Compound: CC(=O)N[C@H]1[C@H]([C@H](O)[C@H](O)COC(=O)C[C@H](NC(=S)[C@H](C)N)C(=O)O)OC(C(=O)O)=C[C@@H]1NC(=N)N (as salt: salt) (hydrate or solvate) [Compound 9, (4S,5R,6R)-5-acetamido-6-((1R,2R)-3-((S)-3-((S)-2-aminopropanethioamido)-3-carboxypropanoyloxy)-1,2-dihydroxypropyl)-4-guanidino-5,6-dihydro-4H-pyran-2-carboxylic acid]

melting point: 140 to 143 °C
Compound: COc1c(C)c2c(c(O)c1C/C=C(\C)CCC(=O)OC[C@H](NC(=S)[C@H](C)N)C(=O)O)C(=O)OC2 (as salt: salt) (hydrate or solvate) [Compound 11, (S)-2-((S)-2-aminopropanethioamido)-3-((E)-6-(4-hydroxy-6-methoxy-7-methyl-3-oxo-1,3-dihydroisobenzofuran-5-yl)-4-methylhex-4-enoyloxy)propanoic acid]

Compound: COc1ccc2cc(CC/C(C)=N/OCCOC(=O)C[C@H](NC(=S)[C@H](C)N)C(=O)O)ccc2c1 [Compound 6]
Trans-stimulated efflux? (rabbit PepT1 [8]): Yes

Rat liver homgenate t1/2 ([7]; 0.5 mM compound): 7.3 h | half-life at 0.5 mM [7]: 7 h | Ki (rabbit PepT1 [1]): 920 ± 190 µM | Cmax ([9]; 3 at 7.6 mg kg^−1 oral, assayed compound intact 3): 16300 ± 1800 ng/mL | AUC ([9]; male, Sprague-Dawley, rat, plasma, po, 7.6 mg/kg): 3200 ± 1400 ng·h/mL | Cmax ([9]; male, Sprague-Dawley, rat, plasma, po, 7.6 mg/kg, CMax, 3 at 7.6 mg kg^−1 oral, assayed compound intact 3): 16700 ng/mL | Tmax ([9]; male, Sprague-Dawley, rat, plasma, po, 7.6 mg/kg, 3 at 7.6 mg kg^−1 oral, assayed compound intact 3): 5.2 ± 0.8 h | Trans-stimulated efflux? (rabbit PepT1 [2]): Yes
Compound: CC(C)c1cccc(C(C)C)c1OC(=O)C[C@H](NC(=S)[C@H](C)N)C(=O)O [Compound 3, (S)-2-((S)-2-Amino-thiopropionylamino)-succinic acid 4-(2,6-diisopropyl-phenyl) ester]

Ki (rabbit PepT1 [1]): 130 ± 20 µM | Trans-stimulated efflux? (rabbit PepT1 [2]): No
Compound: CC(=O)N[C@H]1[C@H]([C@H](O)[C@H](O)COC(=O)C[C@H](NC(=S)[C@H](C)N)C(=O)O)OC(C(=O)O)=C[C@@H]1NC(=N)N [Compound 9, (4S,5R,6R)-5-acetamido-6-((1R,2R)-3-((S)-3-((S)-2-aminopropanethioamido)-3-carboxypropanoyloxy)-1,2-dihydroxypropyl)-4-guanidino-5,6-dihydro-4H-pyran-2-carboxylic acid]

Ki (rabbit PepT1 [1]): 210 ± 80 µM | Trans-stimulated efflux? (rabbit PepT1 [2]): only weakly triggered efflux and Weak
Compound: COc1c(C)c2c(c(O)c1C/C=C(\C)CCC(=O)OC[C@H](NC(=S)[C@H](C)N)C(=O)O)C(=O)OC2 [Compound 11, (S)-2-((S)-2-aminopropanethioamido)-3-((E)-6-(4-hydroxy-6-methoxy-7-methyl-3-oxo-1,3-dihydroisobenzofuran-5-yl)-4-methylhex-4-enoyloxy)propanoic acid]

half-life at 0.5 mM [7]: > 17 h | Ki (rabbit PepT1 [1]): 260 ± 30 µM | Papp at 1 h, 2 mM [5]: 3.7 ± 0.2 ×10⁻⁶ cm/s | AUC ([9]; male, Sprague-Dawley, rat, plasma, po, 10 mg/kg): 500 ± 100 ng·h/mL | Cmax ([9]; male, Sprague-Dawley, rat, plasma, po, 10 mg/kg, CMax, 1 at 10 mg kg^−1 oral, assayed compound intact 1): 200 ± 40 ng/mL | Tmax ([9]; male, Sprague-Dawley, rat, plasma, po, 10 mg/kg, 1 at 10 mg kg^−1 oral, assayed compound intact 1): 1 h | Trans-stimulated efflux? (rabbit PepT1 [2]): Yes
Compound: CC(C)Cc1ccc([C@@H](C)C(=O)OC[C@H](NC(=S)[C@H](C)N)C(=O)O)cc1 [Compound 1]

AUC (in vivo): 14000 ± 1800 ng·h/mL | Cmax (in vivo; CMax): 5700 ± 600 ng/mL | Tmax (in vivo; tmax): 1 h | Tmax [10]: 0.7 ± 0.3 h
Compound: CC(C)Cc1ccc(C(C)C(=O)O)cc1 (stereo not shown) [Ibuprofen]

From paper PMC6107785, “Thiodipeptides targeting the intestinal oligopeptide transporter as a general approach to improving oral drug delivery” (European Journal of Medicinal Chemistry, 2018)
